Laboratory results from patent US10413532B2, “Pharmaceutical compositions containing a PDE4 inhibitor and a PI3 delta or dual PI3 delta-gamma kinase inhibitor” (Rhizen Pharmaceuticals SA, priority 2012, dated 2019).
pIC50: −log10 of the molar value. Where two headings read alike, the source gives them in different places.

Key:
TNFα [1] = experiment: LPS induced TNFα in human whole blood (HWB); assay type: cell-based; settings: 100 nM alone
Procedure: Freshly collected HWB was diluted with media and incubated with the desired concentration of inhibitor for 15 min. LPS (1 μg/ml) was added and then incubated for 24 hours. The supernatant was collected and TNFα estimated using an eBioscience TNFα ELISA kit.
Freshly collected HWB was diluted with media and incubated with the desired concentration of inhibitor for 15 minutes. LPS (1 μg/ml) was added and then incubated for 24 hours. The supernatant was collected and TNFα estimated using an eBioscience TNFα ELISA kit.

neutrophil infiltration = experiment: Lipopolysaccharide induced pulmonary neutrophilia in female Wistar rats; assay type: in vivo
Procedure: After the quarantine period, fasted animals were randomized and divided into groups depending on their body weights. Test compound was prepared as a suspension in a vehicle consisting of 0.5% methylcellulose in which Tween 80 was used as a suspending agent. Compounds or vehicle were administered by oral gavage in a volume of 10 mL/kg. Animals were anaesthetized with ketamine and LPS solution was administered intratracheally 30 minutes after compound administration at a dose of 1 mg/kg. Six hours after LPS instillation, animals were exsanguinated under anaesthesia, and the trachea was cannulated, and lungs were lavaged with 5-ml aliquots of heparinised PBS (1 unit/ml) four times through the tracheal cannula (total volume 20 ml). Bronchioalveolar (BAL) fluid was stored at 2-8° C. until assayed for total cell and differential leukocyte count. BAL fluid was centrifuged (500×g for 10 min) and the resulting cell pellet was resuspended in 0.5 ml of heparinised saline. The total numbers of white blood cells were determined in BAL fluid or blood using a cell counter and were adjusted to 1×10^6 cell/ml. Differential cell count was calculated manually. One hundred microliters of the cell suspension was centrifuged using cytospin 3 to prepare a cell smear. The cell smear was stained with a blood staining solution for differentiation and slides were microscopically observed to identify eosinophils according to their morphological characteristics. The number of each cell type among 300 white blood cells in the cell smear was determined and expressed as a percentage of total cells. The number of eosinophil in BALF was calculated.
The procedure for LPS induced pulmonary neutrophilia in female Wistar rats as described in Example 1 was performed with compound A1 and roflumilast.

[2] = tested on: macrophage and neutrophil infiltration; experiment: Acute cigarette smoke induced cell infiltration in male Balb/c mice; assay type: in vivo; settings: acute CS; for ED50: oral
Procedure: Animals were acclimatized for seven days prior to the start of the experiment. Animals were randomly distributed to various groups based on their body weights. On day 1, mice were administered by test compound or vehicle by the oral route and after 30 mins test compound administration animals were placed in a whole body exposure box. The mice were exposed to the mainstream smoke of 6 cigarettes from day 1 to day 4. Exposure to the smoke of each cigarette lasted for 10 min (cigarettes were completely burned in the first two minutes and followed by an air flow with animal ventilator) followed by exposure for the next 20 min with fresh room air. After every second cigarette an additional break of 20 min with exposure to fresh room air was conducted. Control animals were exposed to the room air chamber. From day 1 to day 4 animals were administered test compound by the oral route. On day 5, 24 hours after the last cigarette smoke (CS) exposure. animals were exsanguinated under anaesthesia, and the trachea was cannulated and the lungs were lavaged with 0.5 ml aliquots of heparinised PBS (1 unit/ml) four times through a tracheal cannula (total volume 2 ml). Bronchioalveolar (BAL) collected was stored at 2-8° C. until assayed for total cell and differential leukocyte count. BAL fluid was centrifuged (500×g for 10 min) and the resulting cell pellet was resuspended in 0.5 ml of heparinised saline. The total number of white blood cells was determined in BAL fluid and blood using a blood cell counter and adjusted to 1×10^6 cell/ml. Differential cell count was calculated manually. Forty microliters of the cell suspension was centrifuged using cytospin 3 to prepare a cell smear. The cell smear was stained with a blood staining solution for differentiation and microscopically observed by identifying each cell according to its morphological characteristics. The number of each cell type among 300 white blood cells in the cell smear were determined and expressed as a percentage, and the number of neutrophils and macrophages in each BAL fluid were calculated.
The procedure for acute cigarette smoke induced cell infiltration in male Balb/c mice described in Example 1 was performed with Compound A1 and roflumilast

PI3K Delta = PI3K Delta (Homo sapiens, UniProt O00329); experiment: PI3K Delta enzyme inhibition; assay type: biochemical
PI3K Gamma = PI3K Gamma (Homo sapiens, UniProt P48736); experiment: PI3K Gamma enzyme inhibition; assay type: biochemical
TNFα [3] = experiment: LPS induced TNFα in MH-S (mouse alveolar macrophage) cells; assay type: cell-based
Procedure: MH-S represents a mouse alveolar macrophage cell line that secretes copious amounts of TNFα upon induction by LPS. Cells were plated at 150,000 cells per well. 10 nM of Compound A1 (final concentration) was added 15 minutes prior to the addition of roflumilast. LPS (1 μg/ml) was added and then incubated for 4 hours. The supernatant was collected after 20 hours and TNFα was estimated using an ELISA kit.

TNFα [4] = experiment: LPS induced TNFα in THP-1 (human monocyte) cells; assay type: cell-based; settings: compound alone; THP-1 cells, LPS 1 μg/ml
Procedure: THP-1 represents a monocytic cell line that has elevated endogenous pAKT levels and secretes copious amounts of TNFα upon induction by LPS. Cells were plated at 150,000 cells per well. 10 nM of Compound A1 (final concentration) was added 15 minutes prior to the addition of roflumilast. LPS (1 μg/ml) was added and then incubated for 4 hours. The supernatant was collected after 20 hours and TNFα was estimated using an ELISA kit.

IFNγ [5] = experiment: Con A+PMA induced IFNγ in human whole blood (HWB); assay type: cell-based; settings: 10 nM alone
Procedure: Freshly collected HWB was diluted with media and incubated with the desired concentration of inhibitor for 15 minutes. Cytokine release was induced with the addition of Concanavalin A (25 μg/ml)+Phorbol Myristate Acetate (50 ng/ml). The supernatant was collected after 20 hours and IFNγ was estimated using an ELISA kit.

IFNγ [6] = experiment: Con A+PMA induced IFNγ in PBMC; assay type: cell-based; settings: 10 nM alone
Procedure: PBMC from whole blood were isolated by density gradient using Histopaque and incubated with the desired concentration of inhibitor for 15 minutes. Cytokine release was induced with the addition of Concanavalin A (25 μg/ml)+Phorbol Myristate Acetate (50 ng/ml). Supernatant was collected after 20 hours and IFNγ was estimated using an ELISA kit.

Chain of PI3K Delta (O00329 whole entry, species assumed): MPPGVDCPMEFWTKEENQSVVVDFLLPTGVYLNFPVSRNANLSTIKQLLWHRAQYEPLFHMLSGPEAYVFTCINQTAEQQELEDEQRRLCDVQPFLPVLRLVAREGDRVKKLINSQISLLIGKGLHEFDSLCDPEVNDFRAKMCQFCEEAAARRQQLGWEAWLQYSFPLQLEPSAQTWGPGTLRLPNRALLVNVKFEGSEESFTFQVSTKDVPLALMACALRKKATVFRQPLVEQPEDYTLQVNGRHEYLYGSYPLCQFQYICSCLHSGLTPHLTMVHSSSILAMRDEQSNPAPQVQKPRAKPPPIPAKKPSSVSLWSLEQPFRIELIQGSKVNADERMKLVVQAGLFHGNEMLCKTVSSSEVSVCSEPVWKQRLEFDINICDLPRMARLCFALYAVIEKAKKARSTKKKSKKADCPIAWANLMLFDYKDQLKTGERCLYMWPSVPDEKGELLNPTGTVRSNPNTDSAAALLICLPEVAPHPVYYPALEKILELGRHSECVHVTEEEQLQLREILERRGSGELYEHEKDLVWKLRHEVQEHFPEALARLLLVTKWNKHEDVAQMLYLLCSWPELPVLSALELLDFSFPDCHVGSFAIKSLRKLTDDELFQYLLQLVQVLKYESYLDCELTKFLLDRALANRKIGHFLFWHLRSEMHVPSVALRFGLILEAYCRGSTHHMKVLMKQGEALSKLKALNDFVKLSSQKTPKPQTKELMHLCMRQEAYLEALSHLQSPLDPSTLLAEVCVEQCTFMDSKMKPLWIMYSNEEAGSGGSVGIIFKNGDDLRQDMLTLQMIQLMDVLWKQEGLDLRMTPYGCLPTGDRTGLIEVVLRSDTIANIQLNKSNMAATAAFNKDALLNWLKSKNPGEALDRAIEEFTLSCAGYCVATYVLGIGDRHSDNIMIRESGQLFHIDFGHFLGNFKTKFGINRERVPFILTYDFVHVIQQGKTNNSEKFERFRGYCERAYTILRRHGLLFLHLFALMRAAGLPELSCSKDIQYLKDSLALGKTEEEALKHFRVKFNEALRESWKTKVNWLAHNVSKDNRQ
Chain of PI3K Delta (P27986 whole entry partner, species assumed): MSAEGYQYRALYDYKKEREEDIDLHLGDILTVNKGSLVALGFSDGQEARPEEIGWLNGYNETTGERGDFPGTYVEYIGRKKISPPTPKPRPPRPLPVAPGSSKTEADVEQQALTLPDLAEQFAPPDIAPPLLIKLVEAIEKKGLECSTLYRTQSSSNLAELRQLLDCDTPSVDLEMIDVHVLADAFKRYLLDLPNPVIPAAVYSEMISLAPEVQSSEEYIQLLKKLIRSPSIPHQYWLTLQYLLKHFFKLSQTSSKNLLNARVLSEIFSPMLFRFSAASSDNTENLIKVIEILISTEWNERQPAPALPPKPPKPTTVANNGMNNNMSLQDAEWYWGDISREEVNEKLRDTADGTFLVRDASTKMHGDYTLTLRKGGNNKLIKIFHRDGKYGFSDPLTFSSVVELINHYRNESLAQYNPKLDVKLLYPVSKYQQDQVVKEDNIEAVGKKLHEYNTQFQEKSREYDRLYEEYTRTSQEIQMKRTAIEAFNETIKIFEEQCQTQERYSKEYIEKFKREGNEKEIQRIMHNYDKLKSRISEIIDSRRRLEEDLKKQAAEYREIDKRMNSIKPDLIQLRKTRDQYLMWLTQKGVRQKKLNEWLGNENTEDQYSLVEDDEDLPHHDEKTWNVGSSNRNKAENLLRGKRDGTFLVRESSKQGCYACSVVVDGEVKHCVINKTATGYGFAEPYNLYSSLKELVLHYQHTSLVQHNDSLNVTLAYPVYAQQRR
Chain of PI3K Gamma (P48736 whole entry, species assumed): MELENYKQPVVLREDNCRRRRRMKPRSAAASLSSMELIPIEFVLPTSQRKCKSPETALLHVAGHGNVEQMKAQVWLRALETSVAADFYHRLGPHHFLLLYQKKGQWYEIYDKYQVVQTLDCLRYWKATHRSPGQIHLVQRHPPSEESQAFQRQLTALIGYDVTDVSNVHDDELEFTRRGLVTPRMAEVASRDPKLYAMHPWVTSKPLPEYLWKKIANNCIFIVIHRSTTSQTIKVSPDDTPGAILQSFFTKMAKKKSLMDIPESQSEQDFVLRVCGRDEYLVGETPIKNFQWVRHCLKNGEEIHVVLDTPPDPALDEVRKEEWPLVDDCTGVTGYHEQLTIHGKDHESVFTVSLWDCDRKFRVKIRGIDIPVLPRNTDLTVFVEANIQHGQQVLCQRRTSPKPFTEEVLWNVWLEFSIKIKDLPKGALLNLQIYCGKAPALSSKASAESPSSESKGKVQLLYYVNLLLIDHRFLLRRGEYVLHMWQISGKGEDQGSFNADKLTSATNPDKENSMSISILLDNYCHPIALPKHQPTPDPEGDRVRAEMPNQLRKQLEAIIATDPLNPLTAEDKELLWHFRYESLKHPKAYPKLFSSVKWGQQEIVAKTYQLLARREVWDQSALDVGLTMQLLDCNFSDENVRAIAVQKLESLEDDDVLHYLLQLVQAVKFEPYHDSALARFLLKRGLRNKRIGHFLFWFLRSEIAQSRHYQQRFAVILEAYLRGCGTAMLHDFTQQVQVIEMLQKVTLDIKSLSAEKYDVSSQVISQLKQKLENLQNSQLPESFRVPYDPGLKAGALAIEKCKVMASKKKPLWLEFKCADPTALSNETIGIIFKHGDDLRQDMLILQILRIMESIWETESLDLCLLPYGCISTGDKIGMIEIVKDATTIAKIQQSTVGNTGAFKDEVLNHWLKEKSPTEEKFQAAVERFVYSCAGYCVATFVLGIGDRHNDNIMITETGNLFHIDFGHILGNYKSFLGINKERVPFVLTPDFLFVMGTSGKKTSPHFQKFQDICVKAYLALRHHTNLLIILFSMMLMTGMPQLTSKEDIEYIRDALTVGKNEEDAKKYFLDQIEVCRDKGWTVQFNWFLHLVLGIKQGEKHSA

CC(C)Oc1ccc(-c2nn(C(C)c3oc4cccc(F)c4c(=O)c3-c3cccc(F)c3)c3ncnc(N)c23)cc1F (single isomer, unassigned; (+)) [Compound A1, (+)-2-(1-(4-amino-3-(3-fluoro-4-isopropoxyphenyl)-1H-pyrazolo[3,4-d]pyrimidin-1-yl)ethyl)-5-fluoro-3-(3-fluorophenyl)-4H-chromen-4-one]
effect on TNFα secretion (TNFα [1]): did not affect TNFα secretion | percent inhibition of neutrophil infiltration (neutrophil infiltration; 0.1 mg/kg oral, rat BAL fluid 6 h after LPS): 17.83% | percent inhibition of neutrophil infiltration (neutrophil infiltration; 1 mg/kg oral, dose-response study, rat): 51.76% | percent inhibition of neutrophil infiltration (neutrophil infiltration; 10 mg/kg oral, rat): 70.21% | ED50 (neutrophil infiltration; Neutrophil, oral, rat LPS pulmonary neutrophilia, read-out: 50% inhibition (ED50) dose, neutrophil infiltration): 1.3 mg/kg | inhibition of neutrophil infiltration (neutrophil infiltration; combination study, alone at 1.3 mg/kg, rat): 43.02% | percent inhibition of neutrophil infiltration ([2]; 0.1 mg/kg oral, mouse): 14.76% | percent inhibition of macrophage infiltration ([2]; 0.1 mg/kg oral, mouse BAL): 20.60% | percent inhibition of neutrophil infiltration ([2]; 0.3 mg/kg oral, mouse): 51.31% | percent inhibition of macrophage infiltration ([2]; 0.3 mg/kg oral, dose-response study, mouse): 75.19% | percent inhibition of macrophage infiltration ([2]; 1 mg/kg oral, mouse): 93.11% | percent inhibition of neutrophil infiltration ([2]; 1 mg/kg oral, mouse): 112.83% | ED50 ([2]; Macrophage, mouse, read-out: 50% inhibition (ED50) dose, macrophage infiltration): 0.2 mg/kg | ED50 ([2]; Neutrophil, mouse, read-out: dose of 50% inhibition (ED50) of neutrophil infiltration): 0.26 mg/kg | inhibition of neutrophil infiltration ([2]; combination study, alone at 0.25 mg/kg, mouse): 36.69% | inhibition of macrophage infiltration ([2]; combination study, alone at 0.3 mg/kg, mouse): 31.33% | pIC50 (PI3K Delta): > 7.40 | pIC50 (PI3K Gamma): > 7.40 | decrease in TNFα secretion (TNFα [3]; 15 nM alone): ~10% | inhibition of TNFα (TNFα [3]; compound alone, LPS 1 μg/ml): dose-dependently inhibited TNFα | inhibition of TNFα (TNFα [4]): dose-dependently inhibited TNFα | effect on IFNγ secretion (IFNγ [5]): did not affect IFNγ secretion | effect on IFNγ secretion (IFNγ [6]): did not affect IFNγ secretion
